Key:
[1] = Pharmacokinetic study via oral administration in mice, plasma concentrations; format: in vivo, mice C57BL/6
Description: (§1) The pharmacokinetic study of the chemical compounds (C) following the oral administration thereof was conducted using mice C57BL/6 (January, 53940 The Genest Saint Isle, France). The chemical compounds derived from norbixin (C) were administered at a dose of 50 mg/kg of body weight. After administration, the blood was sampled at the tail at t=0.25 h; 0.5 h; 1 h; 3 h; 6 h and 8 h. The blood samples were centrifuged and the plasmas taken. The dosage of the plasma samples made it possible to determine pharmacokinetic parameters, namely Cmax, which corresponds to the maximum concentration observed after the administration of the molecule, Tmax which is the time required to reach maximum concentration after administration of the molecule and the AUC: the area under the curve which corresponds to the plasma exposure (FIG. 2).
(§2) The LC-MSMS analysis is carried out with a HPLC 1200 Infinity chain (Agilent Technologies, Santa-Clara, United States), a UV detector and a mass spectrometer QQQ6420 (Agilent Technologies Santa-Clara, United States). The injection volume is 5 μL. The chemical compounds C are eluted on an inverse phase column C18 (2.1*50 mm, particles 3 μm; Ace-C18-Excel, AIT) with a gradient of acetonitrile and water (containing 0.1% formic acid) and a flow rate of 0.3 mL/min. The conditions of the gradient can change according to the chemical compound C analyzed. The UV detector analyzes at 460 nm and the mass spectrometer analyzed in Mode MRM—Positive.
(§3) Table 2 discloses the pharmacokinetic results of the chemical compounds C following the administration p.o. 50 mg/kg in D-α-Tocopheryl polyethylene glycol 1000 succinate (VitE-TPGS) 20% in a sodium bicarbonate buffer (0.1M).

[2] = test system: primary cultures of RPE of adult pigs; experiment: In vitro photoprotection of RPE cells illuminated with blue light in the presence of A2E; format: cell-based, pig; conditions: A2E 30 μM, survival 24 h after illumination; for viability at 5 µM / viability at 10 µM / viability at 20 µM: Sus scrofa, RPE
Source text: In addition to better distribution in the target-tissue, selecting new compounds must also be based on good photo-protective activity that limits the loss of the cells of the RPE and thus reducing the retinal degeneration observed during the AMD and other degenerative diseases such as Retinitis pigmentosa and Stargardt's disease. At the cellular level, on cultures of cells the RPE coming from pig retina, Fontaine et al. (2016) have shown that a treatment with norbixin (BIO201) protects the cells of the RPE against apoptosis following an illumination in the presence of A2E (80% survival 24 h after exposure). This same screening test according to the percentage of photoprotection was used so as to determine its modulation by and the chemical compounds derived from norbixin (C) object of the present invention in comparison with the photo-protective effect of norbixin and characterize these modulations from a statical standpoint.
The test in vitro described hereinabove and intended to study the photo-protective effect of norbixin was used so as to quantify the photo-protective effects of the various chemical compounds derived from norbixin (C) on the cells of the RPE illuminated with blue light in the presence of A2E (FIG. 3). The photo-protective effect of the molecules was evaluated in a phototoxicity cellular model induced by treatment by A2E followed by an illumination with blue light. The term “blue radiation” means the radiation corresponding to the blue band of the visible light spectrum, i.e. of a wavelength comprised between 435 and 490 nm. This model uses primary cultures of RPE of adult pigs. The cell survival is quantified thanks to a test of cellular viability. At −48 h the compounds to be tested (in solution at 5 mM in the DMSO) are added to obtain the final concentrations of 1 to 20 μM) then at −19 h of the A2E (final concentration 30 μM) and the cells (time 0 h) are illuminated. 24 h after the survival of the cells is measured. The acquisition of images, as well as the processing thereof, are carried out using a fluorescence microscope controlled by the Metamorph software and a dedicated quantification program. The experiments are conducted on a 96-well microplate in quadruplicate and the experiment is reproduced at least four times. The results are expressed in the form of a ratio representing the number of living cells in the wells treated by the molecules to be tested, divided by the number of living cells in the controlled wells (treated by the dilution medium without A2E). This test made it possible hereinabove to reveal the photo-protective activity of norbixin (Fontaine et al. 2016).

[3] = test system: primary cultures of RPE of adult pigs; conditions: 24 h after exposure; Fontaine et al. (2016); cited from earlier work
[4] = Pharmacokinetic study via oral administration in mice, ocular concentrations; format: in vivo, mice C57BL/6; conditions: for Eye Exposure 50 mg/kg p.o. AUC: Table 3, repeats the eye exposure of Table 2; for Tmax: C57BL/6, mouse, eye, po
Description: as §1
In parallel, the ocular concentrations of the chemical compounds derived from norbixin (C) were dosed in the following way (FIG. 1): both eyes of each mouse were taken in Precellys tubes and stored at −80° C. until the time of dosing. The eyes are then ground in the Precellys tubes with a bench homogenizer, Fast-prep (Fischer Scientific, Hampton, United States) in a mixture of organic solvents, in a first step with 500 μL of chloroform/methanol (1/1, v/v) then 500 μL of chloroform/dichloromethane (1/1, v/v). The supernatants are recovered at each step and transferred to a 96-well plate of 2 mL.
For the quantification of the chemical compounds C, a calibration curve is carried out with 8 standards (5 to 5,000 ng/mL) in the same organic solvent mixtures and transferred (100 μL) to the 96-well plate of 2 mL.
The supernatants and standards are evaporated in a EZ2 (Genevac, Ipswich, United Kingdom), without heating, then taken with 100 μL of DMSO/methanol (20:80, v/v) before being transferred to a 96-well plate of 200 μL.
as §2, §3

[5] = mice, p.o. 50 mg/kg in VitE-TPGS 20% in sodium bicarbonate buffer (0.1M)
[6] = C57BL/6, mouse, in vivo, po, 50 mg/kg

| Structure (SMILES) | Plasma CMax [1, 5] [µg/mL] | Plasma TMax [1, 5] [h] | Plasma Exposure ([1]; mice, p.o. 50 mg/kg in VitE-TPGS 20% in sodium bicarbonate buffer (0.1M), area under the curve) [µg·h/mL] | Photoprotection (%) 5 μM Mean ([2]; 5 μM compound) [%] | Photoprotection (%) 10 μM Mean ([2]; 10 μM compound) [%] | Photoprotection (%) 20 μM Mean ([2]; 20 μM compound) [%] | survival of RPE cells after illumination in the presence of A2E [3] [%] | Eye Exposure 50 mg/kg p.o. AUC [4] [ng · h/eye] | Eye CMax [4, 5] [ng/eye] | Eye TMax [4, 5] [h] | Cmax [1, 6] [ng/mL] | Plasma Exposure [1, 6] [µg·h/mL] | Tmax [1, 6] [h] | viability at 5 µM ([2]; 5 μM compound) [%] | viability at 10 µM ([2]; 10 μM compound) [%] | viability at 20 µM ([2]; 20 μM compound) [%] | Tmax [4, 5] [h] |
| --- | --- | --- | --- | --- | --- | --- | --- | --- | --- | --- | --- | --- | --- | --- | --- | --- | --- |
| CC(/C=C/C=C(C)/C=C/C(=O)O)=C\C=C\C=C(C)\C=C\C=C(C)\C=C\C(=O)O [BIO201, 6,6′-diapocarotene-6,6′-dioate, reference compound] | 34.99 | 0.25 | 100.7 | 19.2 | 34.1 | 63.6 | 80 | 22.4 | 8.6 | 0.5 | – | – | – | – | – | – | – |
| CCOCC1CCN(C(=O)/C=C/C(C)=C/C=C/C(C)=C/C=C/C=C(C)/C=C/C=C(C)\C=C\C(=O)O)CC1 [C23, 1-[4-ethylmethoxypiperidinamido](2E,4E,6E,8E,10E,12E,14E,16Z,18E)-4,8,13,17-tetramethylicosa-2,4,6,8,10,12,14,16,18-nonaenedioate] | – | – | – | – | – | – | – | 54.7 | 11 | – | 5010 | 24.1 | 1 | 38.4 | 59.2 | 73.1 | 2 |
| COC1CCN(C(=O)/C=C/C(C)=C/C=C/C(C)=C/C=C/C=C(C)/C=C/C=C(C)\C=C\C(=O)O)CC1 [C24, 1-[4-methoxypiperidinamido](2E,4E,6E,8E,10E,12E,14E,16Z,18E)-4,8,13,17-tetramethylicosa-2,4,6,8,10,12,14,16,18-nonaenedioate] | – | – | – | – | – | – | – | 499.1 | 96 | – | 48300 | 141.9 | 0.5 | 47 | 69 | 84 | 1.5 |

From US12215067B2, “Chemical compounds targeting the eye and use thereof in the treatment of eye diseases” (BIOPHYTIS, priority 2019, dated 2025)
